Among the data in the NIST ThermoML archive (doi:10.1016/j.jct.2009.08.009) are viscosity values, retold here.

Numbers after ± are expanded uncertainties.

This series can be described thus: xn = mol fraction of the nth substance listed. Particulars: 101 kPa, Liquid, Capillary tube (Ostwald / Ubbelohde) method, x2 = 0.

The term viscosity denotes the resistance of a fluid to flow. Turning to `CCCCCCCCO` [octan-1-ol] + CCOCCOCCO, the viscosity is on record as 8.309 ± 0.045 mPa·s (293.15 K), 7.143 ± 0.04 mPa·s (298.15 K), 5.969 ± 0.035 mPa·s (303.15 K) and 5.009 ± 0.03 mPa·s (308.15 K).

Regarding `CCCCCCCCCCO` [decan-1-ol] + CCOCCOCCO, the viscosity is, setting by setting: (293.15 K) 13.04 ± 0.067 mPa·s; (298.15 K) 11.19 ± 0.059 mPa·s; (303.15 K) 9.066 ± 0.049 mPa·s; (308.15 K) 7.459 ± 0.042 mPa·s.
